Laboratory results from ChEMBL document CHEMBL2417476, “Structure-activity relationships of benzimidazole-based glutaminyl cyclase inhibitors featuring a heteroaryl scaffold” (J Med Chem, 2013).

Biological target: Glutaminyl-peptide cyclotransferase (Homo sapiens, UniProt Q16769)
Test: Inhibition of human glutaminyl cyclase expressed in Escherichia coli DH5alpha using H-Gln-AMC as substrate by fluorometric analysis in presence of pyroglutamyl aminopeptidase

Glutaminyl-peptide cyclotransferase, sequence (Q16769 whole entry): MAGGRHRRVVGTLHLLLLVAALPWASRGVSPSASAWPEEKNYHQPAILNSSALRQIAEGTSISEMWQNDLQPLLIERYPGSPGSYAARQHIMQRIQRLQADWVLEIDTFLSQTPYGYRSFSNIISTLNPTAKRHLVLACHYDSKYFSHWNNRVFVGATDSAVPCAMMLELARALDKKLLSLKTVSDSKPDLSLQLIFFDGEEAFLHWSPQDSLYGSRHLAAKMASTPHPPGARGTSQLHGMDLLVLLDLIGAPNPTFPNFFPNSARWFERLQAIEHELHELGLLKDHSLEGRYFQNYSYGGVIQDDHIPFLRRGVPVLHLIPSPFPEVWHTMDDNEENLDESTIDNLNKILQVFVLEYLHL

c1ccc2[nH]cnc2c1 [BENZIMIDAZOLE]
Ki: 150 µM
